Measurements as given in PubChem BioAssay AID2060893 (Molecular Pharmacology Branch, DTP, NCI, 2025).

Test system: K86415-001-R-J1-PDC complex spheroids, viability
Assay: Anticancer human tumor K86415-001-R-J1-PDC patient-derived lung adenocarcinoma cell line growth inhibition [RAS]
Settings: for IC50: curve of first compound; for viability, T/C: stronger effect = lower value
How it was run: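 Agents were tested in combination matrices in half-log decrements from a top concentration at or near clinical Cmax (10 microM if undetermined). Targets were multi-cell spheroids of tumour lines plus HUVEC and MSC stromal cells.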
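Further: spheroids exposed to agents for seven days before readout.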

In the case of `CCc1c2c(nc3ccc(O)cc13)-c1cc3c(c(=O)n1C2)COC(=O)[C@]3(O)CC` + CCn1c(-c2cccnc2C(C)OC)c2c3cc(ccc31)N1CCOC(CC(NC(=O)C(C(C)C)N(C)C(=O)C3(F)CCN(C(=O)C#CC(C)(C)N(C)C)CC3)C(=O)N3CCCC(N3)C(=O)OCC(C)(C)C2)C1, the IC50 (second compound 0.000949 µM) is reported as less than 0.949 nM, the IC50 (second compound 0.003 µM) is reported as less than 0.949 nM and the IC50 (second compound 0.00949 µM) is reported as less than 0.949 nM. The IC50 (second compound 0.03 µM) was less than 0.949 nM, the IC50 (second compound 0.0949 µM) was less than 0.949 nM and the IC50 (second compound 0.3 µM) was less than 0.949 nM. The viability, T/C (second compound 0.000949 µM, first compound 0.000949 µM) was 36.7%, the viability, T/C (second compound 0.000949 µM, first compound 0.003 µM) was 25.1% and the viability, T/C (second compound 0.000949 µM, first compound 0.00949 µM) was 10.1%. The viability, T/C (second compound 0.000949 µM, first compound 0.03 µM) was 12.2%, the viability, T/C (second compound 0.000949 µM, first compound 0.0949 µM) was 9.29% and the viability, T/C (second compound 0.000949 µM, first compound 0.3 µM) was 3.47%. For the same compound, the viability, T/C (second compound 0.003 µM, first compound 0.000949 µM) was 11.9%, the viability, T/C (second compound 0.003 µM, first compound 0.003 µM) was 13.2% and the viability, T/C (second compound 0.003 µM, first compound 0.00949 µM) was 9.42%. For the same compound, the viability, T/C (second compound 0.003 µM, first compound 0.03 µM) was 10.6%, the viability, T/C (second compound 0.003 µM, first compound 0.0949 µM) was 6.9% and the viability, T/C (second compound 0.003 µM, first compound 0.3 µM) was 2.68%. The viability, T/C (second compound 0.00949 µM, first compound 0.000949 µM) was 11.8%, the viability, T/C (second compound 0.00949 µM, first compound 0.003 µM) was 10.5% and the viability, T/C (second compound 0.00949 µM, first compound 0.00949 µM) was 10.8%. It also gave a viability, T/C (second compound 0.00949 µM, first compound 0.03 µM) of 9.69%, a viability, T/C (second compound 0.00949 µM, first compound 0.0949 µM) of 7.47% and a viability, T/C (second compound 0.00949 µM, first compound 0.3 µM) of 3.83%. It also gave a viability, T/C (second compound 0.03 µM, first compound 0.000949 µM) of 10.7%, a viability, T/C (second compound 0.03 µM, first compound 0.003 µM) of 11.6% and a viability, T/C (second compound 0.03 µM, first compound 0.00949 µM) of 8.61%. For the same compound, the viability, T/C (second compound 0.03 µM, first compound 0.03 µM) was 10.2%, the viability, T/C (second compound 0.03 µM, first compound 0.0949 µM) was 6.38% and the viability, T/C (second compound 0.03 µM, first compound 0.3 µM) was 2.86%. The viability, T/C (second compound 0.0949 µM, first compound 0.000949 µM) was 10.8%, the viability, T/C (second compound 0.0949 µM, first compound 0.003 µM) was 9.6% and the viability, T/C (second compound 0.0949 µM, first compound 0.00949 µM) was 10.9%. The viability, T/C (second compound 0.0949 µM, first compound 0.03 µM) was 9.82%, the viability, T/C (second compound 0.0949 µM, first compound 0.0949 µM) was 3.93% and the viability, T/C (second compound 0.0949 µM, first compound 0.3 µM) was 2.05%. The viability, T/C (second compound 0.3 µM, first compound 0.000949 µM) was 13.9%, the viability, T/C (second compound 0.3 µM, first compound 0.003 µM) was 9.91% and the viability, T/C (second compound 0.3 µM, first compound 0.00949 µM) was 7.1%. The viability, T/C (second compound 0.3 µM, first compound 0.03 µM) was 6.45%, the viability, T/C (second compound 0.3 µM, first compound 0.0949 µM) was 3.04% and the viability, T/C (second compound 0.3 µM, first compound 0.3 µM) was 2.24%.

Work on `CCN1CCN(Cc2ccc(Nc3ncc(F)c(-c4cc(F)c5nc(C)n(C(C)C)c5c4)n3)nc2)CC1` + C=CC(=O)N1CCN(c2nc(OCC3CCCN3C)nc3c(F)c(-c4nc(N)cc(C)c4C(F)(F)F)c(Cl)cc23)C(C)C1 yielded an IC50 (second compound 0.00316 µM) of less than 3.16 nM, an IC50 (second compound 0.01 µM) of less than 3.16 nM and an IC50 (second compound 0.0316 µM) of less than 3.16 nM. It also gave an IC50 (second compound 0.1 µM) of less than 3.16 nM, an IC50 (second compound 0.316 µM) of less than 3.16 nM and an IC50 (second compound 1 µM) of less than 3.16 nM. It also gave a viability, T/C (second compound 0.00316 µM, first compound 0.00316 µM) of 17.1%, a viability, T/C (second compound 0.00316 µM, first compound 0.01 µM) of 15.9% and a viability, T/C (second compound 0.00316 µM, first compound 0.0316 µM) of 13.3%. For the same compound, the viability, T/C (second compound 0.00316 µM, first compound 0.1 µM) was 15%, the viability, T/C (second compound 0.00316 µM, first compound 0.316 µM) was 18.7% and the viability, T/C (second compound 0.00316 µM, first compound 1 µM) was 33.9%. It also gave a viability, T/C (second compound 0.01 µM, first compound 0.00316 µM) of 10.3%, a viability, T/C (second compound 0.01 µM, first compound 0.01 µM) of 11.2% and a viability, T/C (second compound 0.01 µM, first compound 0.0316 µM) of 12.3%. For the same compound, the viability, T/C (second compound 0.01 µM, first compound 0.1 µM) was 10.7%, the viability, T/C (second compound 0.01 µM, first compound 0.316 µM) was 13.3% and the viability, T/C (second compound 0.01 µM, first compound 1 µM) was 24.8%. It also gave a viability, T/C (second compound 0.0316 µM, first compound 0.00316 µM) of 9.79%, a viability, T/C (second compound 0.0316 µM, first compound 0.01 µM) of 12.9% and a viability, T/C (second compound 0.0316 µM, first compound 0.0316 µM) of 11%. It also gave a viability, T/C (second compound 0.0316 µM, first compound 0.1 µM) of 10.2%, a viability, T/C (second compound 0.0316 µM, first compound 0.316 µM) of 11% and a viability, T/C (second compound 0.0316 µM, first compound 1 µM) of 18.5%. For the same compound, the viability, T/C (second compound 0.1 µM, first compound 0.00316 µM) was 10.1%, the viability, T/C (second compound 0.1 µM, first compound 0.01 µM) was 10.5% and the viability, T/C (second compound 0.1 µM, first compound 0.0316 µM) was 9.47%. For the same compound, the viability, T/C (second compound 0.1 µM, first compound 0.1 µM) was 8.04%, the viability, T/C (second compound 0.1 µM, first compound 0.316 µM) was 10.6% and the viability, T/C (second compound 0.1 µM, first compound 1 µM) was 14.2%. For the same compound, the viability, T/C (second compound 0.316 µM, first compound 0.00316 µM) was 9.47%, the viability, T/C (second compound 0.316 µM, first compound 0.01 µM) was 8.55% and the viability, T/C (second compound 0.316 µM, first compound 0.0316 µM) was 9.15%. It also gave a viability, T/C (second compound 0.316 µM, first compound 0.1 µM) of 9.51%, a viability, T/C (second compound 0.316 µM, first compound 0.316 µM) of 12.2% and a viability, T/C (second compound 0.316 µM, first compound 1 µM) of 17.6%. It also gave a viability, T/C (second compound 1 µM, first compound 0.00316 µM) of 9.7%, a viability, T/C (second compound 1 µM, first compound 0.01 µM) of 11.8% and a viability, T/C (second compound 1 µM, first compound 0.0316 µM) of 11.7%. It also gave a viability, T/C (second compound 1 µM, first compound 0.1 µM) of 10.2%, a viability, T/C (second compound 1 µM, first compound 0.316 µM) of 11.2% and a viability, T/C (second compound 1 µM, first compound 1 µM) of 18.3%.
